Values quoted from earlier work, collected in patent US20100113603A1, “COMBINATION THERAPIES FOR THE TREATMENT OF OBESITY” (priority 2008, published 2010).

details: literature studies of each medication

Structure (SMILES)	weight loss of body weight for drug compared with placebo
CC(C)(N)Cc1ccccc1 [phentermine]	about 5%
CCN[C@@H](C)Cc1cccc(C(F)(F)F)c1 [dexfenfluramine]	about 5%
CCCCCCCCCCC[C@@H](C[C@@H]1OC(=O)[C@H]1CCCCCC)OC(=O)[C@H](CC(C)C)NC=O [orlistat]	about 5%
CC(C)CC(N(C)C)C1(c2ccc(Cl)cc2)CCC1 (stereo not shown) [sibutramine]	about 5%
